Patent publication US10716859B2, “Excipients for stabilising viral particles, polypeptides or biological material” (priority 2010, dated 2020)

Key:
[1] = test system: Recombinant adenovirus expressing enhanced GFP; assay: Recovered adenoviral activity after 7 days at 4° C. or 37° C. with glycinergics or SMM (Example 4); type: cell-based; conditions: one week at 37° C.
white cell fraction = assay: White cell viability in human blood diluted with excipients, Guava Viacount (Example 18); type: cell-based; conditions: equal volume dilution, 25° C. for 30 minutes
[2] = 0.07 M, sole excipient (no sugars)
[3] = 0.07 M, with sugars (1M Sucrose, 100 mM Raffinose)
[4] = 0.70 M, sole excipient (no sugars)
[5] = 0.70 M, with sugars (1M Sucrose, 100 mM Raffinose)

Structure (SMILES): CN(C)CC(=O)O [DMG, N,N-Dimethylglycine]
- recovered viral activity [1, 2]: 27%
- recovered viral activity [1, 3]: 37%
- recovered viral activity [1, 4]: 41%
- recovered viral activity [1, 5]: 52%
- effect on white cell viability in the blood sample (white cell fraction): no adverse effects

Structure (SMILES): C[N+](C)(C)CC(=O)O [TMG, N,N,N-trimethylglycine]
- recovered viral activity [1, 2]: 21%
- recovered viral activity [1, 3]: 45%
- recovered viral activity [1, 4]: 45%
- recovered viral activity [1, 5]: 38.7%

Structure (SMILES): CNCC(=O)O [sarcosine, N-Methyl-glycine]
- recovered viral activity [1, 2]: 29%
- recovered viral activity [1, 3]: 37%
- recovered viral activity [1, 4]: 49%
- recovered viral activity [1, 5]: 56%

Structure (SMILES): C[S+](C)CC[C@H](N)C(=O)O [SMM, S-methyl-L-methionine]
- recovered viral activity [1, 2]: 33%
- recovered viral activity ([1]; 0.23 M, sole excipient (no sugars)): 43%

Structure (SMILES): NCC(=O)O [glycine, Glycine, reference compound]
- recovered viral activity [1, 2]: 29%
- recovered viral activity [1, 3]: 41%
- recovered viral activity [1, 4]: 45%
- recovered viral activity [1, 5]: 54%
